In US6608086B2, “Dihydropyridines and new uses thereof” (Synaptic Pharmaceutical Corporation, priority 1993, dated 2003):
Where a name gives a salt, the structure may show the parent alone. Read-outs that look alike come from different tables or passages of the source. Values belong to the molecule of their own block, whether it stands above or below them.

Assays:
[1] = target: T1, α1A Human Adrenergic Receptor (Homo sapiens, UniProt P25100); assay: Radioligand binding, [3H]prazosin, cloned human α1A adrenergic receptor
T1 construct: The entire coding region of α1A (1719 bp); expressed in transfected cells
T1 sequence (P25100 1-572): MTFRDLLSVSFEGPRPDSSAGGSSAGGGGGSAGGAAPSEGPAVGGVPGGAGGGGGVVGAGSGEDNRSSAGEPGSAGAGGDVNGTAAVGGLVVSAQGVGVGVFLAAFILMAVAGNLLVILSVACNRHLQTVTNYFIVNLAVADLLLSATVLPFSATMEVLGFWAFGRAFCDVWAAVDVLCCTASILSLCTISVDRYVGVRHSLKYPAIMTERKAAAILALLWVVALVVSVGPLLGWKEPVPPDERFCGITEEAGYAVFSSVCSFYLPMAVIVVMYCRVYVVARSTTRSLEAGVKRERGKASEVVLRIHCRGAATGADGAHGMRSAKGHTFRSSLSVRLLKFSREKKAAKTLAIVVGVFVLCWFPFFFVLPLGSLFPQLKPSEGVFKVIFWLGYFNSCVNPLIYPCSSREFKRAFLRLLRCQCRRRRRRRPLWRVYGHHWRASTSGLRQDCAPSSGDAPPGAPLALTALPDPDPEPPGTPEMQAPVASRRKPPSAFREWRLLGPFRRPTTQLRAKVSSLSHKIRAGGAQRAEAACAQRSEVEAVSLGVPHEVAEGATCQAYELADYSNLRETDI
Summary of the method: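 Membranes from LM(tk−) cells transfected with cloned human α1A receptor, prepared in 50 mM Tris-HCl, 1 mM MgCl2, 0.1% ascorbic acid pH 7.5, were incubated with 0.5 nM [3H]prazosin at 37° C for 20 min. Nonspecific binding was defined with 10 μM phentolamine; bound ligand was separated by GF/B filtration.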

[2] = target: T2, α2B receptor (Homo sapiens, UniProt P18089); assay: Competition binding, [3H]rauwolscine, human α2B receptor
T2 construct: host or cells: LM(tk-) cells, line L-NGC-α2B
T2 sequence (P18089 1-450): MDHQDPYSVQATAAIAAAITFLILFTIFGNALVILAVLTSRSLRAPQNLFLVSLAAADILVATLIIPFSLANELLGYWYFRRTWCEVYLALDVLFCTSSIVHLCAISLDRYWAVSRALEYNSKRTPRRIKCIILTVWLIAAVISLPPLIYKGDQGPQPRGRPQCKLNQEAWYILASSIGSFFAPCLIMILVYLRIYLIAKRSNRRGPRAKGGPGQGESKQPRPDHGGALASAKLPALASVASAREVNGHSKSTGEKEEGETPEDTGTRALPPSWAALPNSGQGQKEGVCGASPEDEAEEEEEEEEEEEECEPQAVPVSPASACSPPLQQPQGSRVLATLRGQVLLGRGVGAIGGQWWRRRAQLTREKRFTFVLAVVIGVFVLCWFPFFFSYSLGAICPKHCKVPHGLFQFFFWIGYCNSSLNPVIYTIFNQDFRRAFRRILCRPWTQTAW
Summary of the method: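 Lysates of LM(tk−) cells stably expressing each α2 subtype were suspended in 25 mM glycylglycine buffer (pH 7.6 at room temperature). Equilibrium competition binding used 0.5 nM [3H]rauwolscine, with nonspecific binding defined by 10 μM phentolamine; bound radioligand was separated by GF/B filtration.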

[3] = target: T3, α1B Human Adrenergic Receptor (Homo sapiens, UniProt P35368); assay: Radioligand binding, [3H]prazosin, cloned human α1B adrenergic receptor
T3 construct: The entire coding region of α1B (1563 bp); expressed in transfected cells
T3 sequence (P35368 1-520): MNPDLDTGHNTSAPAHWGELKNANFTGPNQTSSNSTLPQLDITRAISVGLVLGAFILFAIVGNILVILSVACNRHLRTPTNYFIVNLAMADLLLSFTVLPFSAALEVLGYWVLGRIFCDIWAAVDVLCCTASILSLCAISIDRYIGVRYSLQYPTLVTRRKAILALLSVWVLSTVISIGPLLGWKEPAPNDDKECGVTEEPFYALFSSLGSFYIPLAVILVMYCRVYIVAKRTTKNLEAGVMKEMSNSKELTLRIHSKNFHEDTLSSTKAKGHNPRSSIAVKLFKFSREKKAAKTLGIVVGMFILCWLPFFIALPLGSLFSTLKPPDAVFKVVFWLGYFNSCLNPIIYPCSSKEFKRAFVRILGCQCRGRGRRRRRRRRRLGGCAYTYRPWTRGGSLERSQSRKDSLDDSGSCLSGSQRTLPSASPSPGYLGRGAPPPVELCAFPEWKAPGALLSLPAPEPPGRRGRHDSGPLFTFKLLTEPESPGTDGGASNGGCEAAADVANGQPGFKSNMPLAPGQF
Summary of the method: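 Membranes from stably transfected LM(tk−) cells, resuspended in 50 mM Tris-HCl, 1 mM MgCl2, 0.1% ascorbic acid, pH 7.5, were incubated with 0.5 nM [3H]prazosin for 20 min at 37° C. Nonspecific binding defined with 10 μM phentolamine; bound ligand separated by GF/B filtration.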

[4] = [3H]prazosin, cloned human α1A receptor, LM(tk−) cell membranes
[5] = [3H]rauwolscine, human α2B receptor, LM(tk−) cells
[6] = cloned human α1B receptor, LM(tk−) cell membranes
[7] = [3H]prazosin, cloned human α1A receptor, LM(tk−) cell membranes, read-out: pKi alpha-1 1a (converted)
[8] = [3H]rauwolscine, human α2B receptor, LM(tk−) cells, read-out: pKi alpha-2 2b (converted)
[9] = cloned human α1B receptor, LM(tk−) cell membranes, read-out: pKi alpha-1 1b (converted)
[10] = PKi alpha-1 1a, [3H]prazosin, cloned human receptor, LM(tk-) cell membranes, mean
[11] = PKi alpha-2 2b, [3H]rauwolscine, human receptor, LM(tk-) cell lysates, mean
[12] = PKi alpha-1 1b, cloned human receptor, LM(tk-) cell membranes, mean
[13] = [3H]prazosin, cloned human receptor, LM(tk-) cell membranes, mean, read-out: PKi alpha-1 1a (converted)
[14] = [3H]rauwolscine, human receptor, LM(tk-) cell lysates, mean, read-out: PKi alpha-2 2b (converted)
[15] = cloned human receptor, LM(tk-) cell membranes, mean, read-out: PKi alpha-1 1b (converted)

Compound: COC(=O)C1=C(C)NC2=C(C(=O)N(CCCN3CCC(c4ccccc4)(c4ccccc4)CC3)C2)C1c1ccc([N+](=O)[O-])cc1.Cl.O (stereo not drawn) [Example 91, 1,4,7,7-Tetrahydro-3-methoxycarbonyl-6-methyl-5-oxo-4-(4-nitrophenyl)-6-(3-(4,4-diphenylpiperidin-1-yl)) propylpyrrolo[3,4-b]pyridine, hydrochloride hydrate]
pKi alpha-1 1a [1, 4]: 6.29 | pKi alpha-2 2b [2, 5]: 6.00 | pKi alpha-1 1b [3, 6]: 6.54

Compound: CCC1=C(C(N)=O)C(c2ccc([N+](=O)[O-])cc2)C(C(=O)NCCCN2CCC(O)(c3ccccc3)CC2)=CN1CC.Cl.O (stereo not drawn) [Example 101, 5-Carboxamido-1,6-diethyl-1,4-dihydro-3-{N-[3-(4-hydroxy-4-phenylpiperidin-1-yl)propyl]}carboxamido-4-(4-nitrophenyl)pyridine hydrochloride hydrate]
pKi alpha-1 1a [1, 4]: 5.86 | pKi alpha-2 2b [2, 5]: 6.18 | pKi alpha-1 1b [3, 6]: 6.22

Ki [1, 7]: 132 nM | Ki [2, 8]: 56.2 nM | Ki [3, 9]: 34.7 nM
Compound: CCC1=C(C(N)=O)C(c2ccc([N+](=O)[O-])cc2)C(C(=O)NCCCN2CCN(c3ccccc3)CC2)=C(CC)N1 (stereo not drawn) [Example 104, 5-Carboxamido-2,6-diethyl-1,4-dihydro-4-(4-nitrophenyl)-3-{N-[3-(4-phenylpiperazin-1-yl)propyl]}carboxamido-pyridine hydrochloride hydrate]

Compound: CCC1=C(C(N)=O)C(c2ccc([N+](=O)[O-])cc2)C(C(=O)NCCCN2CCC(c3ccccc3)(c3ccccc3)CC2)=C(CC)N1 (stereo not drawn) [Example 120, 5-Carboxamido-2,6-diethyl-1,4-dihydro-4-(4-nitrophenyl)-3-{N-[3-(4,4-diphenylpiperidin-1-yl)propyl]} carboxamidopyridine]
pKi alpha-1 1a [1, 4]: 6.33 | pKi alpha-2 2b [2, 5]: 6.59 | pKi alpha-1 1b [3, 6]: 6.61

Ki [1, 7]: 240 nM | Ki [2, 8]: 257 nM | Ki [3, 9]: 72.4 nM
Compound: CCC1=C(C(N)=O)C(c2ccc([N+](=O)[O-])cc2)C(C(=O)NCCCN2CCC(c3ccccc3)CC2)=C(CC)N1 (stereo not drawn) [Example 121, 5-Carboxamido-2,6-diethyl-1,4-dihydro-4-(4-nitrophenyl)-3-{N-[3-(4-phenylpiperidin-1-yl)propyl]}carboxamidopyridine]

Compound: CCC1=C(C(N)=O)C(c2ccc([N+](=O)[O-])cc2)C(C(=O)NC2CCN(CCc3c[nH]c4ccccc34)CC2)=CN1CC (stereo not drawn) [Example 122, 5-Carboxamido-1,4-dihydro-3-(N-{1-[2-(3-indolyl)ethyl]piperidin-4-yl}) carboxamido-1,6-diethyl-4-(4-nitrophenyl)pyridine]
pKi alpha-1 1a [1, 4]: 6.62 | pKi alpha-2 2b [2, 5]: 7.35 | pKi alpha-1 1b [3, 6]: 7.57

Compound: CCC1=C(C(N)=O)C(c2ccc([N+](=O)[O-])cc2)C(C(=O)NC2CCN(CCc3c[nH]c4ccccc34)CC2)=CN1CC (stereo not drawn) [Example 123, 5-Carboxamido-1,6-diethyl-1,4-dihydro-3-(N-{1-[2-(3-indolyl)ethyl]piperidin-4-yl}) carboxamide-4-(4-nitrophenyl)pyridine]
pKi alpha-1 1a [1, 4]: 6.7 | pKi alpha-2 2b [2, 5]: 6.87 | pKi alpha-1 1b [3, 6]: 8.01

Ki [1, 7]: 57.5 nM | Ki [2, 8]: 200 nM | Ki [3, 9]: 89.1 nM
Compound: COc1ccccc1N1CCN(CCCNC(=O)C2=C(C)NC(C)=C(C(N)=O)C2c2ccc([N+](=O)[O-])cc2)CC1 (stereo not drawn) [Example 124]

Compound: CCC1=C(C(=O)NC)C(c2ccc([N+](=O)[O-])cc2)C(C(=O)NCCCN2CCC(C#N)(c3ccccc3)CC2)=C(CC)N1 (stereo not drawn) [Example 126, 3-{N-[3-(4-Cyano-4-phenylpiperidin-1-yl)propyl]}carboxamido-1,4-dihydro-2,6-diethyl-5-(1-methyl)carboxamido-4-(4-nitrophenyl)pyridine]
pKi alpha-1 1a [1, 4]: 5.15 | pKi alpha-2 2b [2, 5]: 5.63 | pKi alpha-1 1b [3, 6]: 5.37

Compound: CNC(=O)C1=C(C)NC(C)=C(C(=O)NCCCN2CCC(c3ccccc3)(c3ccccc3)CC2)C1c1ccc2c(c1)OCCO2 (stereo not drawn) [Example 163]
Ki [1, 10]: 776 nM | Ki [2, 11]: 1700 nM | Ki [3, 12]: 1020 nM

Compound: CCC1=C(C(N)=O)C(c2ccc([N+](=O)[O-])cc2)C(C(=O)NCCCN2CCC(C(=O)OC)(c3ccccc3)CC2)=C(CCCCN=[N+]=[N-])N1 (stereo not drawn) [Example 165, 2-(4-Azidobutyl)-3-{N-[3-(4-methoxycarbonyl-4-phenylpiperidin-1-yl)propyl]}carboxamido-5-carboxamido-6-ethyl-1,4-dihydro-4-(4-nitrophenyl)pyridine]
Ki [1, 13]: 1410 nM | Ki [2, 14]: 1950 nM | Ki [3, 15]: 575 nM

Compound: CCC1=C(C(N)=O)C(c2ccc([N+](=O)[O-])cc2)C(C(=O)NCCCN2CCC(C(=O)OC)(c3ccccc3)CC2)=C(CCCCN)N1 (stereo not drawn) [Example 166, 2-(4-Aminobutyl)-5-carboxamido-6-ethyl-1,4-dihydro-3-{N-[3-(4-methoxycarbonyl-4-phenylpiperidin-1-yl)propyl]}carboxamido-4-(4-nitrophenyl)pyridine]
Ki [1, 13]: 2340 nM | Ki [2, 14]: 3890 nM | Ki [3, 15]: 1320 nM

Compound: COC(=O)C1=C(C)NC(CCCCN)=C(C(=O)NCCCN2CCC(c3ccccc3)(c3ccccc3)CC2)C1c1ccc([N+](=O)[O-])cc1 (stereo not drawn) [Example 170, 2-(4-Aminobutyl)-1,4-dihydro-5-methoxycarbonyl-6-methyl-4-(4-nitrophenyl)-3-{N-[3-(4,4-diphenylpiperidin-1-yl)propyl]}carboxamidopyridine]
Ki ([1]; PKi alpha-1 1a): 295 nM | Ki ([2]; PKi alpha-2 2b): 8710 nM | Ki [3, 15]: 105 nM

Compound: CCC1=C(C(N)=O)C(c2ccc([N+](=O)[O-])cc2)C(C(=O)NCCCN2CCC(c3ccccc3)(c3ccccc3)CC2)=C(CCCCN)N1 (stereo not drawn) [Example 171, 2-(4-Aminobutyl)-5-carboxamido-6-ethyl-1,4-dihydro-4-(4-nitrophenyl)-3-{N-[3-(4,4-diphenylpiperidin-1-yl)propyl]}carboxamidopyridine]
Ki [1, 10]: 1050 nM | Ki [2, 11]: 2000 nM | Ki [3, 12]: 617 nM

Compound: CCC1=C(C(=O)NC)C(c2ccc([N+](=O)[O-])cc2)C(C(=O)NCCCN2CCC(c3ccccc3)(c3ccccc3)CC2)=C(CCCCN)N1 (stereo not drawn) [Example 172, 2-(4-Aminobutyl)-6-ethyl-1,4-dihydro-5-(N-methyl)carboxamido-4-(4-nitrophenyl)-3-{N-[3-(4,4-diphenylpiperidin-1-yl)propyl]}carboxamidopyridine]
Ki [1, 10]: 813 nM | Ki [2, 11]: 3470 nM | Ki [3, 12]: 617 nM
